Test results from ChEMBL document CHEMBL4507328, “Data for DCP probe BAY-390” (2021).
Activity calls are given as the source filed them. The rule behind the calls is not given here.

Tests used:
[1] = target: Histamine H3 receptor (Homo sapiens) (UniProt Q9Y5N1); conditions: Compound concentration 10.0 uM
[2] = target: Alpha-2B adrenergic receptor (Homo sapiens) (UniProt P18089); conditions: Compound concentration 10.0 uM
[3] = species on record: Homo sapiens; assay: Inhibition of Nicotinic Acetylcholine at compound concentration of 10.0 uM in the Eurofins-Panlabs radioligand binding assay (Eurofins_assay_258590); type: protein-complex assay; conditions: Compound concentration 10.0 uM
[4] = target: Sodium-dependent dopamine transporter (Homo sapiens, UniProt Q01959); assay: Inhibition of Transporter, Dopamine (DAT) at compound concentration of 10.0 uM in the Eurofins-Panlabs radioligand binding assay (Eurofins_assay_220320); set-up: ligand concentration 0.15 nM, non-specific ligand with concentration 10 uM Nomifensine, incubation time 3 h, incubation temperature 4 C
Sodium-dependent dopamine transporter, sequence (Q01959 whole entry, the tested form may be a part): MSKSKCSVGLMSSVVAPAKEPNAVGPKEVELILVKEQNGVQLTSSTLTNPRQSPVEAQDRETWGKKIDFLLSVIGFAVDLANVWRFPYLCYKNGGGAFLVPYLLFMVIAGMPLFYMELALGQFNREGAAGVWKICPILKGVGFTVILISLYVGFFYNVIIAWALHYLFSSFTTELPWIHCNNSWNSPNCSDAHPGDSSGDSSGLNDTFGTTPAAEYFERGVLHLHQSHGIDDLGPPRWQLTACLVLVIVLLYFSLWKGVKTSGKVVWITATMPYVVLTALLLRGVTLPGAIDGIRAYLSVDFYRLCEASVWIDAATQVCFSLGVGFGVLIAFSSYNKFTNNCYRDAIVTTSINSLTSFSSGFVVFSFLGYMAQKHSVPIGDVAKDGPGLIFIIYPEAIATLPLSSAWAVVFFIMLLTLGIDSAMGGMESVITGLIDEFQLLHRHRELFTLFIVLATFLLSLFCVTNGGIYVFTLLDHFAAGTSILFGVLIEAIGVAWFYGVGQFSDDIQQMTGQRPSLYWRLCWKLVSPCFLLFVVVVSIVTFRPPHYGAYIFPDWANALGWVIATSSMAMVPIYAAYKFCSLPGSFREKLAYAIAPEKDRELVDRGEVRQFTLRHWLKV

[5] = target: ANK_REP_REGION domain-containing protein (Cavia porcellus, UniProt H0VJD1); assay: FLIPR Ca2+ assay (guinea pig TRPA1)
[6] = FLIPR Ca2+ assay (dog TRPA1); set-up: species or system Canis lupus familiaris
[7] = FLIPR Ca2+ assay (monkey TRPA1)
[8] = target: Short transient receptor potential channel 3 (Homo sapiens, UniProt Q13507); assay: TRP selectivity screen (TRPC3)
Short transient receptor potential channel 3, sequence (Q13507 whole entry): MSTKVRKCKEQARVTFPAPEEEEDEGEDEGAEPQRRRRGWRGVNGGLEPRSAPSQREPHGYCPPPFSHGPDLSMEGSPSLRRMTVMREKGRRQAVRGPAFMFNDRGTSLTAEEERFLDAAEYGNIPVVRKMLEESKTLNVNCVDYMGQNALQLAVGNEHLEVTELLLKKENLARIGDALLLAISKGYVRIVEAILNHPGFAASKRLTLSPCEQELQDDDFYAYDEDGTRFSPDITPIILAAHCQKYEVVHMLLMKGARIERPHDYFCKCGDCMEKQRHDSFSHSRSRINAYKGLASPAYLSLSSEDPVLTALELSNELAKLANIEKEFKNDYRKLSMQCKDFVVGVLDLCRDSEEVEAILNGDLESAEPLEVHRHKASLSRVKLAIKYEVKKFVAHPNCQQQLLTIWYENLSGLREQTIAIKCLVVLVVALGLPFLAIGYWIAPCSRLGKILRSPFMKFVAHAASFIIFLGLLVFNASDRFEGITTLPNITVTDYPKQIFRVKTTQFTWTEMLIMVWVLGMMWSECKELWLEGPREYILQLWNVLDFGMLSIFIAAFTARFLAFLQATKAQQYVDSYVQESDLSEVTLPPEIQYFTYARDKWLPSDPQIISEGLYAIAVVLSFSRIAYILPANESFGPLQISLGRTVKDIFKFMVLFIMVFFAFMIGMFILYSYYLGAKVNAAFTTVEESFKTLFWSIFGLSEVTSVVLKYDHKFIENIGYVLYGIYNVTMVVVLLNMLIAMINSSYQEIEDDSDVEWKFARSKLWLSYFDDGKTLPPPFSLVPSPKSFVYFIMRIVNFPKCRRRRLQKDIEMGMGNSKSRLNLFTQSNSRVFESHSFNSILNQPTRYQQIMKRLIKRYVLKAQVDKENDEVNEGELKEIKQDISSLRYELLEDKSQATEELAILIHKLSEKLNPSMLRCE

[9] = target: 5-hydroxytryptamine receptor 1B (Homo sapiens) (UniProt P28222); conditions: Compound concentration 10.0 uM
5-hydroxytryptamine receptor 1B (Homo sapiens), sequence (P28222 whole entry): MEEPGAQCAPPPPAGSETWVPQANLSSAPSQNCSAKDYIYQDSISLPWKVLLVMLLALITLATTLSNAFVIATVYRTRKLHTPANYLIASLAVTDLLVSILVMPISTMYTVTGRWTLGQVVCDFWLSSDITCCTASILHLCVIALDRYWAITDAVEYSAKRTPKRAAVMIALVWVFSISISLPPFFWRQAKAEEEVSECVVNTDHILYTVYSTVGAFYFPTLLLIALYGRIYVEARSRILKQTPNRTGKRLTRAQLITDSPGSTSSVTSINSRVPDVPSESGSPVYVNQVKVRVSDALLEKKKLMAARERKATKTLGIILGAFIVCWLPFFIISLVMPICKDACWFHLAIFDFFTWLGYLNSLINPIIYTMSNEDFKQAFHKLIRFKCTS

[10] = target: Sodium-dependent noradrenaline transporter (Homo sapiens) (UniProt P23975); conditions: Compound concentration 10.0 uM
Sodium-dependent noradrenaline transporter (Homo sapiens), sequence (P23975 whole entry): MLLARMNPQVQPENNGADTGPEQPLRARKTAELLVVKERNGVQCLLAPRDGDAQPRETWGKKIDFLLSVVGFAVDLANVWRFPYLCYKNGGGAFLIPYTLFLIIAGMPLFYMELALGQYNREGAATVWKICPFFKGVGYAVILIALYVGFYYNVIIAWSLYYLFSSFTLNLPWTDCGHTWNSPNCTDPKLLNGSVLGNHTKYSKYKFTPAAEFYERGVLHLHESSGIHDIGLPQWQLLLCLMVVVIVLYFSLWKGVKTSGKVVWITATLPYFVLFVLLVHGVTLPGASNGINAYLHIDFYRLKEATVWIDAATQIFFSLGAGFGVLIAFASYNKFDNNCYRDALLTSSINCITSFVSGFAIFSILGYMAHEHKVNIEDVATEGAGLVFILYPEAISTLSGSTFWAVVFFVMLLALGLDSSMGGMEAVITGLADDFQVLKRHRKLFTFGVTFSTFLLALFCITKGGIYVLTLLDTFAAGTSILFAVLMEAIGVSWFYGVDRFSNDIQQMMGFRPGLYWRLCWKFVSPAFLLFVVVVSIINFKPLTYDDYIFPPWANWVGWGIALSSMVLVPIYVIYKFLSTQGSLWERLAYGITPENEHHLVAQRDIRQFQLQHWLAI

[11] = target: T1, GABA-A receptor; anion channel (Rattus norvegicus) (UniProt O09028+P15431+P18506+P18508+P19969+P20236+P23574+P23576+P28471+P28473+P30191+P62813+P63079+P63138+Q91ZM7+Q9ES14); conditions: Compound concentration 10.0 uM
[12] = target: Adenosine receptor A3 (Homo sapiens) (UniProt P0DMS8); conditions: Compound concentration 10.0 uM
[13] = target: Beta-1 adrenergic receptor (Homo sapiens) (UniProt P08588); conditions: Compound concentration 10.0 uM
Beta-1 adrenergic receptor (Homo sapiens), sequence (P08588 whole entry, looked up): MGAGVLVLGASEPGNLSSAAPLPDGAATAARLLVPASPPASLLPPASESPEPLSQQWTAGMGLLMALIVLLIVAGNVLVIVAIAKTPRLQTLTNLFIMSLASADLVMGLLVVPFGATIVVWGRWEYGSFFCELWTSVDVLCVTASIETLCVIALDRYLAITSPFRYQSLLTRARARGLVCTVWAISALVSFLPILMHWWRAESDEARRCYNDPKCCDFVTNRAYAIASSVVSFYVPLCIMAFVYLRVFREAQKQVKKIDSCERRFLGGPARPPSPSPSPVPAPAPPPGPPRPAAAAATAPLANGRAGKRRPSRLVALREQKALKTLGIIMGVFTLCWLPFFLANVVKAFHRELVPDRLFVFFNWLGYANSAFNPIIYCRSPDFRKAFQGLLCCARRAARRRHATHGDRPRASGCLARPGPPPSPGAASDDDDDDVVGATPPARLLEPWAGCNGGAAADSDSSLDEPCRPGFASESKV

[14] = target: B2 bradykinin receptor (Homo sapiens) (UniProt P30411); conditions: Compound concentration 10.0 uM
B2 bradykinin receptor (Homo sapiens), sequence (P30411 whole entry): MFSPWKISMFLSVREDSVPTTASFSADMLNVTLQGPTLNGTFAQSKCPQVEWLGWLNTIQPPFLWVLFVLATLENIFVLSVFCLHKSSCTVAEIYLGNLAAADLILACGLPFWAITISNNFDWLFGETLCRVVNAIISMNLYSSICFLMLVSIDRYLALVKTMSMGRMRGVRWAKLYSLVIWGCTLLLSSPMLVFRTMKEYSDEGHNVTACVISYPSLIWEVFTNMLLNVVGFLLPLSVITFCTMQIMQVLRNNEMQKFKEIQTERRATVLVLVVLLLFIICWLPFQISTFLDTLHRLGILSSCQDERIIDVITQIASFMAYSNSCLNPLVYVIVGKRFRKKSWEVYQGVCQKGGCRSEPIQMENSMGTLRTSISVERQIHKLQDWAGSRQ

[15] = target: D(3) dopamine receptor (Homo sapiens) (UniProt P35462); conditions: Compound concentration 10.0 uM
[16] = target: Endothelin receptor type B (Homo sapiens) (UniProt P24530); conditions: Compound concentration 10.0 uM
[17] = target: Glutamate NMDA receptor (Rattus norvegicus) (UniProt P35439+Q00959+Q00960+Q00961+Q62645+Q8VHN2+Q9R1M7); conditions: Compound concentration 10.0 uM
[18] = target: Histamine H3 receptor (Homo sapiens) (UniProt Q9Y5N1); conditions: Compound concentration 10.0 uM; remark: listed apart in the source
[19] = target: T2, Muscarinic acetylcholine receptor M1 (Homo sapiens) (UniProt P11229); conditions: Compound concentration 10.0 uM
T2 sequence (whole entry): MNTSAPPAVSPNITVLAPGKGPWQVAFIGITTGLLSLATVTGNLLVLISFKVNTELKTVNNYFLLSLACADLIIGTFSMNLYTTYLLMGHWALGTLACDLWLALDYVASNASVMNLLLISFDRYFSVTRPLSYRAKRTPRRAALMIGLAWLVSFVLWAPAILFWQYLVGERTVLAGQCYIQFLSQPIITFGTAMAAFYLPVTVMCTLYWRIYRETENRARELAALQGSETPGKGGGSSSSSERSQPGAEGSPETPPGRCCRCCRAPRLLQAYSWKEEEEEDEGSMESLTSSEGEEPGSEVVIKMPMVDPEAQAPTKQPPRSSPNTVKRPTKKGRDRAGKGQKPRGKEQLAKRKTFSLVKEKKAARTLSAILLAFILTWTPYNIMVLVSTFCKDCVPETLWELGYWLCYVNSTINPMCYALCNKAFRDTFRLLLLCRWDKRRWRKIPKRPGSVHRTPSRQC

[20] = target: 5-hydroxytryptamine receptor 2B (Homo sapiens) (UniProt P41595); conditions: Compound concentration 10.0 uM
[21] = target: Sodium-dependent noradrenaline transporter (Homo sapiens) (UniProt P23975); conditions: Compound concentration 10.0 uM; remark: listed apart in the source
[22] = target: Sodium-dependent serotonin transporter (Homo sapiens) (UniProt P31645); conditions: Compound concentration 10.0 uM
[23] = target: T1, GABA-A receptor; anion channel (Rattus norvegicus); conditions: Compound concentration 10.0 uM; remark: listed apart in the source
[24] = target: T3, Muscarinic acetylcholine receptor M4 (Homo sapiens) (UniProt P08173); conditions: Compound concentration 10.0 uM
T3 sequence (whole entry): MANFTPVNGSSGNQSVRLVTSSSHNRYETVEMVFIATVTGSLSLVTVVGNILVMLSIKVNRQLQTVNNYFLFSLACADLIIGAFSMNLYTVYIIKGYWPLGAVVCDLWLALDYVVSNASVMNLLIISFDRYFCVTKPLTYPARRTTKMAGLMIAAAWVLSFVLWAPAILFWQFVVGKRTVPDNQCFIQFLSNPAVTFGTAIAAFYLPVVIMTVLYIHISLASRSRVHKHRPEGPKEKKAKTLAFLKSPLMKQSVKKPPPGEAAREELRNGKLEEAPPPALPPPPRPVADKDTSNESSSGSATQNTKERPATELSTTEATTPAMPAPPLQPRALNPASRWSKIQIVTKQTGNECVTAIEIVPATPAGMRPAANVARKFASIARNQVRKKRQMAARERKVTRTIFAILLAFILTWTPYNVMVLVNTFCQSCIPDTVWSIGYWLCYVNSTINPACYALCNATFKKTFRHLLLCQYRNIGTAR

[25] = target: Type-1 angiotensin II receptor (Homo sapiens) (UniProt P30556); conditions: Compound concentration 10.0 uM
Type-1 angiotensin II receptor (Homo sapiens), sequence (P30556 whole entry): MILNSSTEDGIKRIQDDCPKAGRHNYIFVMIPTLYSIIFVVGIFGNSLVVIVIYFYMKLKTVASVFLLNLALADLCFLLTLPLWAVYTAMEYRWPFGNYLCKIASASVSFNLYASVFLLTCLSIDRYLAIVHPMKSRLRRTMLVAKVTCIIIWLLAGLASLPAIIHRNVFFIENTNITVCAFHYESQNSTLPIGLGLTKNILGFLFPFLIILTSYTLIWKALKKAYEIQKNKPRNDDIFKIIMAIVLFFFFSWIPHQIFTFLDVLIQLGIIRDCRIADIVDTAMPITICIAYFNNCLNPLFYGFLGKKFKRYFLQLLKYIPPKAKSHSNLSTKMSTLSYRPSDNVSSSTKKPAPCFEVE

[26] = target: Growth hormone secretagogue receptor type 1 (Homo sapiens) (UniProt Q92847); conditions: Compound concentration 10.0 uM
Growth hormone secretagogue receptor type 1 (Homo sapiens), sequence (Q92847 whole entry): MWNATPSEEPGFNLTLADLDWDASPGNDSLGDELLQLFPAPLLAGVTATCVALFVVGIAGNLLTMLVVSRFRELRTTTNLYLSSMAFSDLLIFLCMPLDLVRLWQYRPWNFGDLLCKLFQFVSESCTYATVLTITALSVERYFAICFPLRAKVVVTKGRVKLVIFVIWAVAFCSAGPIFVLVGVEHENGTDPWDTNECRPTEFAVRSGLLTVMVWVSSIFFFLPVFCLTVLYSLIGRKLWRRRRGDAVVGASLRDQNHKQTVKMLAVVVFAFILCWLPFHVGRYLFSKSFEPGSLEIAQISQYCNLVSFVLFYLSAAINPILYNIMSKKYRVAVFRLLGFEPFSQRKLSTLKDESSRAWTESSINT

[27] = target: Motilin receptor (Homo sapiens) (UniProt O43193); conditions: Compound concentration 10.0 uM
Motilin receptor (Homo sapiens), sequence (O43193 whole entry): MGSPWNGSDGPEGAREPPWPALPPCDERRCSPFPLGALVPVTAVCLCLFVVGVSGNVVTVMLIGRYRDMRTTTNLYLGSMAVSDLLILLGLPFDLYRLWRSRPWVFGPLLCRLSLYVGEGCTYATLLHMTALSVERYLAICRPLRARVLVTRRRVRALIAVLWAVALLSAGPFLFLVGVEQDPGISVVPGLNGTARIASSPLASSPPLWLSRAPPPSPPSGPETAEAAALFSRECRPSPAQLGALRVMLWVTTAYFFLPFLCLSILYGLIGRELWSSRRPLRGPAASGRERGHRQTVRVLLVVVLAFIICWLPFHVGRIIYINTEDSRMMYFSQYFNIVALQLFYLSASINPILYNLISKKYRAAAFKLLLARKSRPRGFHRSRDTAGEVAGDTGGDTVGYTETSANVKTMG

Histamine H3 receptor (Homo sapiens), sequence (Q9Y5N1 whole entry): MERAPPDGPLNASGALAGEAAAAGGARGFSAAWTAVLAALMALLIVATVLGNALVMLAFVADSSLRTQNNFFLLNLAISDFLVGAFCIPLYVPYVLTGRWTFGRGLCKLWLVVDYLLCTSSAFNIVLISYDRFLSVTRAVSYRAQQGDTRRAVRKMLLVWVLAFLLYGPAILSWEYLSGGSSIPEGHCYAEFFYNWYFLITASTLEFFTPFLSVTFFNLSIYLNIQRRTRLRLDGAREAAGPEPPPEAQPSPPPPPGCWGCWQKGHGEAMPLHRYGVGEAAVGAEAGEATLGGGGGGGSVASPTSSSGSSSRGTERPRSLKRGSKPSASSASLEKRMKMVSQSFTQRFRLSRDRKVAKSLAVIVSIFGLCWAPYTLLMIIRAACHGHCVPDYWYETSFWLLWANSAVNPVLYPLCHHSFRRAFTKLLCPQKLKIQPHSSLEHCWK

Question: What does the source list for `COc1cc(N[C@@H]2CCCC[C@]2(O)C(F)(F)F)ccc1F` [BAY-9897]?
Answer: inhibition [1]: -2.34%; inhibition [2]: -0.18%

Question: For `O[C@]1(C(F)(F)F)CCCC[C@H]1Nc1ccc(F)cc1` [BAY-390], which inhibition [3] is on record?
Answer: -7%

Question: What about the IC50 [4] of the same compound?
Answer: 1200 nM

Question: And the Ki [4]?
Answer: 940 nM

Question: And the IC50 [5]?
Answer: 68 nM (active)

Question: And the IC50 [6]?
Answer: 81 nM (active)

Question: And the IC50 [7]?
Answer: 19 nM (active)

Question: What about the IC50 [8] of the same compound?
Answer: > 25000 nM (not active)

Question: What about the inhibition [9] of the same compound?
Answer: -3.12%

Question: What about the inhibition [10] of the same compound?
Answer: 0.78%

Question: What about the inhibition [11] of the same compound?
Answer: 19.7%

Question: What about the inhibition [12] of the same compound?
Answer: 4%

Question: What about the inhibition [13] of the same compound?
Answer: 3%

Question: And the inhibition [14]?
Answer: 4%

Question: What about the inhibition [15] of the same compound?
Answer: 9%

Question: What about the inhibition [16] of the same compound?
Answer: -4%

Question: What about the inhibition [17] of the same compound?
Answer: 5%

Question: What about the inhibition [18] of the same compound?
Answer: -4%

Question: And the inhibition [19]?
Answer: -1%

Question: And the inhibition [20]?
Answer: -4%

Question: And the inhibition [21]?
Answer: 16%

Question: What about the inhibition [22] of the same compound?
Answer: 3%

Question: And the inhibition [23]?
Answer: -8%

Question: What about the inhibition [24] of the same compound?
Answer: 14%

Question: And the inhibition [25]?
Answer: 4%

Question: What about the inhibition [26] of the same compound?
Answer: 3%

Question: And the inhibition [27]?
Answer: 13%
